What was measured:
[1] = molecular target: T1, recombinant human MAO-B (Homo sapiens, UniProt P27338); assay: MAO-Glo MAO-B inhibition assay; assay type: biochemical
T1 construct: purchased Sigma-Aldrich
Description: The MAO-B inhibition activity of SU4312 was determined by MAO-Glo™ Assay kit (Promega Inc., USA). The recombinant human MAO-B enzymes and selegiline used in this study were purchased from Sigma-Aldrich. Concentrations of SU4312 tested were 0.01, 0.03, 0.1, 0.3, 1.0 and 10 μM. Selegiline, a known MAO-B inhibitor, was used as positive control at 0.001, 0.01, 0.1, 1, 10 μM. Briefly, SU4312 and selegiline were incubated in 96-well opaque white plates with MAO substrate and rhMAO-B (0.25 mg protein/mL final concentration). Reactions were started by addition of rhMAO-B. Samples were incubated for 1 hour at room temperature. Reactions were terminated by addition of luciferin detection reagent, and samples were incubated an additional 20 minutes to allow development of luciferase- and esterase-dependent luminescence. Relative luminescence was determined with a plate luminometer and was corrected for background using no-MAO-B controls. Results are presented as percent of vehicle (total MAO-B activity).

[2] = test system: dopaminergic neurons in zebrafish larval; assay: MPTP zebrafish, TH-positive neuron count in paraffin sections; assay type: in vivo
Description: Healthy zebrafish embryos were picked and dechorionated manually at 1 day post fertilization (dpf) then distributed into a 12-well plate with 20 fish embryos or a 6-well microplate with 30 fish embryos in each well. In pilot experiments, several doses of MPTP were added to embryo medium (final concentration from 50 to 800 μM) and 1 dpf fish embryo were treated for 48 hours, The optimal dose used (200 μM) induced a significant decrease in brain diencephalic dopaminergic neurons without any detectable systematic toxicity (data not shown). Thus subsequent studies were performed with 200 μM MPTP for whole-mount immunostaining and gene expression experiments.
After drug treatment, fixation of zebrafish larval was performed as the procedure in whole-mount immunostaining. The fixed specimens were then mounted on 1% agarose blocks in a common linear plane to ensure that the microtome blade passes through each specimen simultaneously. The specimen-containing agarose was converted into a sectionable paraffin wax block and conducted processes as described by Sabaliauskas et al., 2006. […] The results were analyzed by counting the numbers of TH-positive cells at ×20 magnifications on a stereomicroscope (BX51, Olympus Corp. Japan). TH-positive cells in 3 matched sections of each zebrafish were counted and averaged. […]

[3] = test system: PDGFR; details: cited from earlier work
[4] = molecular target: T2, recombinant human inducible NOS (iNOS) (Homo sapiens, UniProt P35228); assay: In vitro NOS activity assay, iNOS; assay type: biochemical; details: up to 1 mM
T2 construct: purchased Alexis Biochemicals (Lausen, Switzerland)
Description: In the in vitro NOS activity assay (Li et al., 2007), purified recombinant human nNOS, endothelial NOS (eNOS), and inducible NOS (iNOS) were bought from Alexis Biochemicals (Lausen, Switzerland). NOS activity was determined by monitoring the conversion of L-[3H]arginine to [3H]citrulline following the instructions provided in the kit (Calbiochem, USA). The reaction mixture contained a final volume of 40 μl with 25 mM Tris-Cl at pH 7.4, 3 μM tetrahydrobiopterin, 1 μM FAD, 1 μM FMN, 1 mM NADPH, 0.6 mM CaCl2, 0.1 μM calmodulin, 2.5 μg of pure NOS enzyme, 5 μl L-[3H]arginine (Perkin Elmer, Waltham, Mass., USA), and different concentrations of the tested reagents. The reaction mixture was incubated at 22° C. for 45 min. The reaction was quenched by adding 400 μl of stopping buffer (50 mM HEPES, pH 5.5, and 5 mM EDTA) for nNOS and eNOS reactions or by heating reactive tubes for iNOS. Unreacted L-[3H]arginine was then trapped by 100 μl of equilibrated resin provided in a spin cup followed by centrifugation for 30 s at 13,200 rpm. The filtrate was quantified by liquid scintillation counting.

T1 sequence (P27338 whole entry): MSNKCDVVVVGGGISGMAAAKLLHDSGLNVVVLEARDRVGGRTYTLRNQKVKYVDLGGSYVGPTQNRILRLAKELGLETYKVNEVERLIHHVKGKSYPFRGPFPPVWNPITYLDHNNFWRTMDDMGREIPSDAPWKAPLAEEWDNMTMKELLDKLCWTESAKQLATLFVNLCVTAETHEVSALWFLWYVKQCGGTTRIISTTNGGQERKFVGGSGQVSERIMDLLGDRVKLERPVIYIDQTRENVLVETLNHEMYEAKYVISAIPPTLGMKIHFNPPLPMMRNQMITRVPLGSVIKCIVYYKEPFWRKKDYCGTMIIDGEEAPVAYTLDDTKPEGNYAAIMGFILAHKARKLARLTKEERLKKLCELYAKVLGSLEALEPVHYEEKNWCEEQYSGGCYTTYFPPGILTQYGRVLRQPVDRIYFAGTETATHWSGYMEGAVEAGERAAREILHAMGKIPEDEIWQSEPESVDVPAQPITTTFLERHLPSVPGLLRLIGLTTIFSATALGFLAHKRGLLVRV

Compound: CN(C)c1ccc(C=C2C(=O)Nc3ccccc32)cc1 [SU4312, 3-[4-(dimethylamino)benzylidenyl]indolin-2-one]
- MAO-B activity in vitro ([1]; figure legends): inhibited monoamine oxidase-B (MAO-B) activity in a concentration dependent manner
- IC50 ([1]; rhMAO-B, 1 hour at room temperature): ~0.2 µM

Compound: Cc1cc(C)c(/C=C2\C(=O)Nc3ccccc32)[nH]1 [SU5416, (3Z)-3-[(3,5-dimethyl-1H-pyrrol-2-yl)methylidene]-1,3-dihydro-2H-indol-2-one]
- MPTP-induced loss of dopaminergic neurons (TH-positive neuron count) ([2]; 200 μM MPTP, 1 μM SU5416, 2 days): obviously prevented the loss of dopaminergic neurons
- number of dopaminergic neurons, drug alone ([2]; without MPTP): did not notably alter the number of dopaminergic neurons

Compound: Clc1ccc(Nc2nnc(Cc3ccncc3)c3ccccc23)cc1 [PTK787/ZK222584]
- inhibition of recombinant human iNOS [4]: did not inhibit any of the isoforms even at 1 mM

Reference: patent US9486440B2, “Uses of indole-ketones or indolidones as neuro-protective drugs” (UNIVERSITY OF MACAU, priority 2011, dated 2016)
